Where two headings read alike, the source gives them in different places.
How the values were obtained:
Male Sprague-Dawley rats [1] = assay: animal or person; type: in vivo, rat
human μ opioid receptor [2] = target: T1, human μ opioid receptor (Homo sapiens (Human), UniProt P35372); assay: Functional activity ([35S]GTPγS binding); type: biochemical; settings: [35S]GTPγS 0.080 nM, CHO cell membranes, 60 min at 30° C., filtration
In short: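 Membranes from stably transfected CHO cells (7.5 μg) incubated with 12 test-compound concentrations and 0.080 nM [35S]GTPγS in 50 mM Tris-HCl pH 7.4, 3 mM MgCl2, 0.2 mM EGTA, 3 μM GDP, 100 mM NaCl, 60 min at 30° C. Nonspecific binding defined with 10 μM GTPγS; bound label collected by filtration and scintillation counting.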

Male Sprague-Dawley rats [3] = settings: rat
μ-receptor = μ-receptor (Homo sapiens (Human), UniProt P35372); assay: Receptor binding, competitive displacement of [3H]DAMGO; settings: 0.25 nM [3H]DAMGO, CHO cell membrane protein, 60 min at 25° C.
In short: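 Ki derived via Cheng-Prusoff from IC50 (log-probit fit) of displacement of 0.25 nM [3H]DAMGO, 12 concentrations, from human μ-receptor in CHO cell membranes. Binding: 50 mM Tris-HCl pH 7.5, 25 °C, 60 min, 10 μM naloxone defining nonspecific, filter-bound radioactivity counted.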

human μ opioid receptor [4] = target: T1, human μ opioid receptor; assay: Alternate functional activity ([35S]GTPγS binding) assay, SPA beads; type: biochemical; settings: alternate assay: [35S]GTPγS 0.020 nM, CHO cell membranes with WGA PVT SPA beads
Description: The [^35S]GTPγS assay measures the functional properties of a compound by quantifying the level of G-protein activation following agonist binding in studies using stably transfected cells, and is considered to be a measure of the efficacy of a compound. Membranes from CHO (Chinese Hamster Ovary) cells that stably expressed one type of the cloned human opioid receptor human were used in the experiments. The assay buffer consisted of 50 mM Tris-HCl, pH 7.4, 3 mM MgCl2, 0.2 mM EGTA, 5 μM GDP, and 100 mM NaCl. CHO cell membranes stably expressing the human p opioid receptor were pre-incubated with scintillation proximity assay beads from PerkinElmer® (WGA PVT SPA) for 30 minutes, at 8 µg membrane and […] beads in a volume of 0.1 mL per reaction. In a final volume of 0.2 mL, 11 different concentrations of each test compound were incubated with the membrane-SPA bead mixture and a final concentration of 0.020 nM [35S]GTPγS for 1.5 hours with gentle shaking. Reactions were then incubated for 5 hours. Data are the mean EC50 values ±S.E.M. EC50 values (nM) for compounds 12, 16, 19, 20, 149, 151, 152, 157, 160, 161, 164-169, 172, 173, 180-197, and 199-207 are shown in Table 1.

[5] = sc, minimum dose at which maximal reversal of hind paw weight bearing (50±0.5%) was achieved, subcutaneous administration, rat, read-out: MEMD SC CFA
[6] = maximum pCO2 within 2 hours of administration, dose 10× CFA MEMD, subcutaneous
[7] = maximum pCO2 within 2 hours of administration, dose 100× CFA MEMD, subcutaneous
[8] = Rattus norvegicus, sc, read-out: MEMD SC CFA (mg/kg)

Structure (SMILES): COC1(c2cccc(C(N)=O)c2)C2CCCC1CN(CC1(O)CC1)C2.Cl [Compound 46, 3-((1R,5S,9r)-3-((1-hydroxycyclopropyl)methyl)-9-methoxy-3-azabicyclo[3.3.1]nonan-9-yl)benzamide hydrochloride]
- minimal effective dose (Male Sprague-Dawley rats [1]; [5]): 1 mg/kg
- EC50 (human μ opioid receptor [2]): 10 to 75 nM
- <60 mmHg @ 10X CFA MEMD (Male Sprague-Dawley rats [3]; [6]): + (resulted in a maximum pCO2 value of less than 60 mmHg within 2 hours of administration)
- Ki (μ-receptor): < 1 nM

Structure (SMILES): CCCN1CC2CCCC(C1)C2(OC)c1ccnc(C(N)=O)c1.Cl [Compound 91, 4-((1R,5S,9r)-9-methoxy-3-propyl-3-azabicyclo[3.3.1]nonan-9-yl)picolinamide hydrochloride]
- minimal effective dose (Male Sprague-Dawley rats [1]; po, minimum dose at which maximal reversal of hind paw weight bearing was achieved, dosed orally, rat, read-out: MEMD SC CFA): 3 mg/kg
- EC50 (human μ opioid receptor [2]): 10 to 75 nM
- <60 mmHg @ 100X CFA MEMD (Male Sprague-Dawley rats [3]; maximum pCO2 within 2 hours of administration, dosed at 10 mg/kg): + (dosed at 10 mg/kg) (resulted in a maximum pCO2 value of less than 60 mmHg within 2 hours of administration)
- Ki (μ-receptor): 1 to 5 nM

Structure (SMILES): COC1(c2cccc(C(N)=O)c2)C2CCCC1CN([C@H]1CCCOC1)C2.Cl (single isomer, unassigned) [Compound 140]
- minimal effective dose (Male Sprague-Dawley rats [1]; [5]): 0.1 mg/kg
- <60 mmHg @ 10X CFA MEMD (Male Sprague-Dawley rats [3]; [6]): + (resulted in a maximum pCO2 value of less than 60 mmHg within 2 hours of administration)

Structure (SMILES): COC1(c2ccnc(C(N)=O)c2)C2CCCC1CN(Cc1cn(C)cn1)C2.Cl [Compound 123, 4-((1R,5S,9r)-9-methoxy-3-((1-methyl-1H-imidazol-4-yl)methyl)-3-azabicyclo[3.3.1]nonan-9-yl)picolinamide hydrochloride]
- minimal effective dose (Male Sprague-Dawley rats [1]; [5]): 1 mg/kg
- EC50 (human μ opioid receptor [2]): 10 to 75 nM
- <60 mmHg @ 10X CFA MEMD (Male Sprague-Dawley rats [3]; [6]): + (resulted in a maximum pCO2 value of less than 60 mmHg within 2 hours of administration)
- Ki (μ-receptor): 1 to 5 nM

Structure (SMILES): COC[C@H](C)N1CC2CCCC(C1)C2(OC)c1ccnc(C(N)=O)c1.Cl (single isomer, unassigned) [Compound 61]
- minimal effective dose (Male Sprague-Dawley rats [1]; [5]): 0.3 mg/kg
- <60 mmHg @ 10X CFA MEMD (Male Sprague-Dawley rats [3]; [6]): + (resulted in a maximum pCO2 value of less than 60 mmHg within 2 hours of administration)
- <60 mmHg @ 100X CFA MEMD (Male Sprague-Dawley rats [3]; [7]): + (resulted in a maximum pCO2 value of less than 60 mmHg within 2 hours of administration)

Structure (SMILES): COC1(c2ccnc(C(N)=O)c2)C2CCCC1CNC2.Cl [Compound 70, 4-((1R,5S,9r)-9-methoxy-3-azabicyclo[3.3.1]nonan-9-yl)picolinamide hydrochloride]
- minimal effective dose (Male Sprague-Dawley rats [1]; [5]): 1 mg/kg
- EC50 (human μ opioid receptor [2]): > 75 nM
- <60 mmHg @ 10X CFA MEMD (Male Sprague-Dawley rats [3]; [6]): + (resulted in a maximum pCO2 value of less than 60 mmHg within 2 hours of administration)
- <60 mmHg @ 100X CFA MEMD (Male Sprague-Dawley rats [3]; [7]): + (resulted in a maximum pCO2 value of less than 60 mmHg within 2 hours of administration)
- Ki (μ-receptor): 1 to 5 nM

Structure (SMILES): COC1(c2ccnc(C(N)=O)c2)C2CCCC1CN(C)C2.Cl [Compound 43, 4-((1R,5S,9r)-9-methoxy-3-methyl-3-azabicyclo[3.3.1]nonan-9-yl)picolinamide hydrochloride]
- minimal effective dose (Male Sprague-Dawley rats [1]; [5]): 0.1 mg/kg
- EC50 (human μ opioid receptor [2]): 10 to 75 nM
- <60 mmHg @ 10X CFA MEMD (Male Sprague-Dawley rats [3]; [6]): + (resulted in a maximum pCO2 value of less than 60 mmHg within 2 hours of administration)
- <60 mmHg @ 100X CFA MEMD (Male Sprague-Dawley rats [3]; [7]): + (resulted in a maximum pCO2 value of less than 60 mmHg within 2 hours of administration)
- Ki (μ-receptor): < 1 nM

Structure (SMILES): COC1(c2ccnc(C(N)=O)c2)C2CCCC1CN(Cc1c[nH]c3ccccc13)C2.Cl [Compound 126, 4-((1R,5S,9r)-3-((1H-indol-3-yl)methyl)-9-methoxy-3-azabicyclo[3.3.1]nonan-9-yl)picolinamide hydrochloride]
- minimal effective dose (Male Sprague-Dawley rats [1]; [5]): 0.1 mg/kg
- EC50 (human μ opioid receptor [2]): < 10 nM
- <60 mmHg @ 10X CFA MEMD (Male Sprague-Dawley rats [3]; [6]): − (resulted in a maximum pCO2 value of greater than 60 mmHg within 2 hours of administration)
- Ki (μ-receptor): < 1 nM

Structure (SMILES): COC1(c2ccnc(C(N)=O)c2)C2CCCC1CN([C@@H]1CCCOC1)C2.Cl (stereo partly drawn) [Compound 60, 4-((1R,5S,9R)-9-methoxy-3-((R)-tetrahydro-2H-pyran-3-yl)-3-azabicyclo[3.3.1]nonan-9-yl)picolinamide hydrochloride]
- minimal effective dose (Male Sprague-Dawley rats [1]; [5]): 0.3 mg/kg
- EC50 (human μ opioid receptor [2]): > 75 nM
- <60 mmHg @ 10X CFA MEMD (Male Sprague-Dawley rats [3]; [6]): + (resulted in a maximum pCO2 value of less than 60 mmHg within 2 hours of administration)
- <60 mmHg @ 100X CFA MEMD (Male Sprague-Dawley rats [3]; [7]): + (resulted in a maximum pCO2 value of less than 60 mmHg within 2 hours of administration)
- Ki (μ-receptor): 1 to 5 nM

Structure (SMILES): COC1(c2ccnc(C(N)=O)c2)C2CCCC1CN(CC1CCOCC1)C2.Cl [Compound 127, 4-((1R,5S,9r)-9-methoxy-3-((tetrahydro-2H-pyran-4-yl)methyl)-3-azabicyclo[3.3.1]nonan-9-yl)picolinamide hydrochloride]
- minimal effective dose (Male Sprague-Dawley rats [1]; [5]): 0.1 mg/kg
- EC50 (human μ opioid receptor [2]): 10 to 75 nM
- <60 mmHg @ 10X CFA MEMD (Male Sprague-Dawley rats [3]; [6]): + (resulted in a maximum pCO2 value of less than 60 mmHg within 2 hours of administration)
- <60 mmHg @ 100X CFA MEMD (Male Sprague-Dawley rats [3]; [7]): + (resulted in a maximum pCO2 value of less than 60 mmHg within 2 hours of administration)
- Ki (μ-receptor): 1 to 5 nM

Structure (SMILES): COC1(c2cccc(C(N)=O)c2)C2CCCC1CN(C1CC3(COC3)C1)C2.O=C(O)CC(O)C(=O)O [Compound 133, 3-((1R,5S,9r)-9-methoxy-3-(2-oxaspiro[3.3]heptan-6-yl)-3-azabicyclo[3.3.1]nonan-9-yl)benzamide (S)-2-hydroxysuccinate]
- minimal effective dose (Male Sprague-Dawley rats [1]; [5]): 1 mg/kg
- EC50 (human μ opioid receptor [2]): < 10 nM
- <60 mmHg @ 10X CFA MEMD (Male Sprague-Dawley rats [3]; [6]): + (resulted in a maximum pCO2 value of less than 60 mmHg within 2 hours of administration)
- Ki (μ-receptor): < 1 nM

Structure (SMILES): COC1(c2cccc(C(N)=O)c2)C2CCCC1CN(C)C2.Cl [Compound 23, 3-((1R,5S,9r)-9-methoxy-3-methyl-3-azabicyclo[3.3.1]nonan-9-yl)benzamide hydrochloride]
- minimal effective dose (Male Sprague-Dawley rats [1]; [5]): 0.1 mg/kg
- EC50 (human μ opioid receptor [2]): < 10 nM
- <60 mmHg @ 10X CFA MEMD (Male Sprague-Dawley rats [3]; [6]): + (resulted in a maximum pCO2 value of less than 60 mmHg within 2 hours of administration)
- <60 mmHg @ 100X CFA MEMD (Male Sprague-Dawley rats [3]; [7]): + (resulted in a maximum pCO2 value of less than 60 mmHg within 2 hours of administration)
- Ki (μ-receptor): < 1 nM

Structure (SMILES): COC1(c2ccnc(C(N)=O)c2)C2CCCC1CN(CC1CC1)C2.Cl [Compound 27, 4-((1R,5S,9r)-3-(cyclopropylmethyl)-9-methoxy-3-azabicyclo[3.3.1]nonan-9-yl)picolinamide hydrochloride]
- minimal effective dose (Male Sprague-Dawley rats [1]; [5]): 0.01 mg/kg
- EC50 (human μ opioid receptor [2]): 10 to 75 nM
- <60 mmHg @ 100X CFA MEMD (Male Sprague-Dawley rats [3]; [7]): + (resulted in a maximum pCO2 value of less than 60 mmHg within 2 hours of administration)
- Ki (μ-receptor): 1 to 5 nM

Structure (SMILES): CN1CC[C@]23c4c5ccc(O)c4O[C@H]2[C@@H](O)C=C[C@H]3[C@H]1C5 [Morphine, reference compound]
- minimal effective dose (Male Sprague-Dawley rats [1]; [8]): 3 mg/kg
- <60 mmHg @ 10X CFA MEMD (Male Sprague-Dawley rats [3]; in vivo, sc): − (key: −: resulted in a maximum pCO2 value of greater than 60 mmHg within 2 hours of administration; +: resulted in a maximum pCO2 value of less than 60 mmHg within 2 hours of administration)

Structure (SMILES): CCOC1(c2ccnc(C(N)=O)c2)C2CCCC1CNC2 (stereo not drawn) [Compound 161]
- minimal effective dose (Male Sprague-Dawley rats [1]; [5]): 0.3 mg/kg
- EC50 (human μ opioid receptor [4]): 10 to 75 nM

Structure (SMILES): COC1(c2ccc(C(N)=O)s2)C2CCCC1CN(C)C2.Cl [Compound 48, 5-((1R,5S,9r)-9-methoxy-3-methyl-3-azabicyclo[3.3.1]nonan-9-yl)thiophene-2-carboxamide hydrochloride]
- minimal effective dose (Male Sprague-Dawley rats [1]; [5]): 0.1 mg/kg
- EC50 (human μ opioid receptor [2]): 10 to 75 nM
- Ki (μ-receptor): < 1 nM

Structure (SMILES): COC1(c2cccc(C(N)=O)c2)C2CCCC1CN(CCN1CCNC1=O)C2.Cl [Compound 63, 3-((1R,5S,9r)-9-methoxy-3-(2-(2-oxoimidazolidin-1-yl)ethyl)-3-azabicyclo[3.3.1]nonan-9-yl)benzamide hydrochloride]
- minimal effective dose (Male Sprague-Dawley rats [1]; [5]): > 1 mg/kg
- EC50 (human μ opioid receptor [2]): 10 to 75 nM
- Ki (μ-receptor): < 1 nM

Structure (SMILES): COc1ccc2c3c1O[C@H]1C(=O)CC[C@@]4(O)[C@@H](C2)N(C)CC[C@]314 [Oxycodone, reference compound]
- minimal effective dose (Male Sprague-Dawley rats [1]; [8]): 3 mg/kg
- <60 mmHg @ 10X CFA MEMD (Male Sprague-Dawley rats [3]; in vivo, sc): − (key: −: resulted in a maximum pCO2 value of greater than 60 mmHg within 2 hours of administration; +: resulted in a maximum pCO2 value of less than 60 mmHg within 2 hours of administration)
